Laboratory results from article PMC6677754, “In silico design and optimization of selective membranolytic anticancer peptides” (Scientific Reports, 2019).
Peptide text beside a SMILES is read from it.

Assays:
[1] = tested on: human erythrocytes; test: Hemolysis assay; format: cell-based; settings: red cells of human, 1 h
Procedure: Human erythrocytes were freshly ordered at the Blutspende Zürich. Erythrocytes were washed 3 times with a […] phosphate buffered saline (PBS, Gibco, Thermo Fisher Scientific, Waltham, MA, USA) solution centrifuging at 800 g for 10 min or until the supernatant appeared clear to remove the blood plasma. A 5% v/v erythrocytes : PBS solution was prepared for direct use. For HC50 determination, peptides were dissolved in PBS at an intermediate concentration of 1 mM. A dilution series of the peptide from 200 to 6.25 μM was plated in a round-bottomed 96-well plate in triplicates, with a volume of 50 μL per well. PBS buffer and a solution of 0.1% Triton-X-100 (Fisher Chemical, Loughborough, UK) in PBS were employed as negative and positive controls, respectively. 50 μL of the 5% erythrocyte solution were added in each well and the plates were incubated at 37°C for 1 h. After this time, 100 μL PBS were added to each well and plates were centrifuged at 800 g for 10 min. 100 μL of the supernatant were transferred to a flat-bottomed 96-well plate and the absorbance was measured at 540 nm in a Tecan Infinity M1000 spectrophotometer plate reader. The hemolysis percentage was calculated, considering the absorbance values of the Triton and PBS wells as 100% and 0% hemolysis, respectively.
The resultant sigmoidal curves were analyzed with the drc22 R package using a log-logistic model with 3 fixed parameters to obtain the HC50 values. […]
NCI-60 screening procedure […]
Each peptide was tested in a 5-concentration assay, starting at 10^-4 M and diluting 10-fold to the lowest 10^-8 M concentration. The peptides were incubated for 48 h and the cell concentration was assayed by using the sulforhodamine B assay25 and optical density measurements. The growth inhibition (GI50) value24, measures the growth inhibitory power of the drug agent. The GI50 value is the concentration of the test drug for which the condition in Eq. S1 is met, where T is the optical density of the test well after a 48-h exposure to the peptide, T0 the optical density before applying the peptide drug and C the control optical density of a well where no peptide was applied.

[2] = tested on: A549 lung adenocarcinoma cell line; test: Cell viability assay (MTT); format: cell-based, human; settings: Table S2; MTT, 24 h; mean ± sd; N = 2 independent measurements with six technical replicates each (Figs S6-S8); read-out: A549 EC50 /µM
Outline: (§1)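 Viability by MTT: 10^4 cells/well exposed 24 h to 2-fold peptide dilutions from 100 μM in DMEM, then 1 h with 0.5 mg mL−1 MTT; absorbance at 540 nm relative to peptide-free medium as 100% survival. EC50 from a 3-parameter log-logistic fit.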

[3] = tested on: MCF7 breast adenocarcinoma cell line; test: Cell viability assay (MTT); format: cell-based, human; settings: Table S2, 24 h, mean ± sd, N = 2 independent measurements with six technical replicates each (Figs S6-S8)
Outline: as §1

[4] = tested on: noncancer HDMEC primary cells (human dermal microvascular endothelial cells); test: Cell viability assay (MTT); format: cell-based; settings: Table S2; noncancer primary cells; MTT, 24 h; mean ± sd; N = 2 independent measurements with six technical replicates each (Figs S6-S8)
Procedure: 10% fetal bovine serum and 1% penicillin-streptomycin (Thermo Fisher Scientific, Waltham, MA, USA). The cultures were kept at 37°C in a 5% CO2 atmosphere incubator (Thermo Fisher Scientific, Waltham, MA, USA) and split every two to three days to new culture flasks. Cells no older than 20 passages were used for experiments.
For splitting, the cell culture media was aspirated, the cells were washed with 0.01 M phosphate buffered saline (PBS, Gibco, Thermo Fisher Scientific, Waltham, MA, USA) and trypsin-EDTA (trypsin - ethylene diamine tetraacetic acid, Fisher scientific, UK) was added to the cell layer to detach them from the flask surface. After incubation for 2 min at 37°C, cells were resuspended with an equal volume of DMEM media and centrifuged at 310 g for 5 min at 4°C. After removal of the supernatant the cells were resuspended in DMEM cell media and split into new cell culture flasks at a 1/3 to 1/5 ratio.
Determination of the anticancer peptides half effective concentration (EC50) was performed by a 3-(4,5-dimethylthiazol-2-yl)-2,5-diphenyltetrazolium bromide (MTT) assay, as described elsewhere21. Briefly, […] were seeded in each well of a 96-well plate and left to adhere and […]
sulfoxide (DMSO, Fisher Scientific, UK) at an intermediate concentration of 1 mM. The peptides were then diluted in a 2-fold dilution series starting at 100 μM with DMEM culture media. Cells were incubated with the peptide solutions for 24 h. After this time, the cell media was removed and the cells were incubated for 1 h with a 0.5 mg mL−1 MTT solution to allow enough time for formazan crystal formation (Sigma Aldrich, Steinheim, Germany). The supernatant was removed and 100 μL of DMSO were added into each well to resuspend the formazan crystals.
After manually shaking the plates to completely dissolve the crystals, the absorbance was measured at 540 nm in a Tecan Infinity M1000 spectrophotometer. The cell viability was determined based on the quantification of the color intensity in each culture well, considering the absorbance obtained by the control media without peptides as a 100% survival. The resultant sigmoidal curves were analyzed with the drc22 R package using a log-logistic model

| SMILES | Eryhtr. HC50 /µM [1] | EC50 [2] | EC50 [3] | EC50 [4] |
| --- | --- | --- | --- | --- |
| CC[C@H](C)[C@H](NC(=O)[C@@H](NC(=O)[C@H](Cc1c[nH]cn1)NC(=O)[C@H](Cc1ccccc1)NC(=O)[C@H](C)NC(=O)[C@H](CCCCN)NC(=O)[C@H](CCCNC(=N)N)NC(=O)[C@H](Cc1ccc(O)cc1)NC(=O)[C@H](Cc1c[nH]c2ccccc12)NC(=O)[C@@H](NC(=O)[C@H](CCCNC(=N)N)NC(=O)[C@@H](NC(=O)[C@H](CCCCN)NC(=O)[C@H](CCCCN)NC(=O)[C@H](CC(C)C)NC(=O)[C@@H](NC(=O)[C@@H](N)CCC(N)=O)C(C)C)C(C)C)[C@@H](C)O)C(C)C)C(=O)NCC(=O)N[C@@H](CCCCN)C(=O)N[C@H](C(N)=O)C(C)C [Off2.2.4] (H-QVLKKVRTWYRKAFHVIGKV-NH2) | > 200 µM | > 100 µM | 68 ± 5 µM | > 100 µM |
| CC[C@H](C)[C@H](NC(=O)[C@H](CC(C)C)NC(=O)[C@H](CCCCN)NC(=O)[C@H](Cc1ccccc1)NC(=O)[C@@H]1CCCN1C(=O)[C@H](CCCCN)NC(=O)[C@H](Cc1c[nH]cn1)NC(=O)[C@H](Cc1ccccc1)NC(=O)[C@H](Cc1c[nH]c2ccccc12)NC(=O)[C@@H](NC(=O)[C@H](CCCCN)NC(=O)[C@H](CC(C)C)NC(=O)[C@H](Cc1c[nH]cn1)NC(=O)[C@H](CCCNC(=N)N)NC(=O)[C@@H](NC(=O)[C@H](Cc1ccc(O)cc1)NC(=O)[C@@H](N)Cc1c[nH]cn1)[C@@H](C)CC)[C@@H](C)O)C(=O)NCC(=O)N[C@@H](CCCCN)C(=O)N[C@H](C(N)=O)C(C)C [Off2.4] (H-HYIRHLKTWFHKPFKLIGKV-NH2) | > 200 µM | > 100 µM | > 100 µM | 169 ± 28 µM |
| CC(C)C[C@H](NC(=O)[C@H](CCCCN)NC(=O)CNC(=O)[C@H](Cc1ccccc1)NC(=O)[C@H](CC(C)C)NC(=O)[C@H](CCC(=O)O)NC(=O)[C@H](Cc1c[nH]c2ccccc12)NC(=O)[C@@H]1CCCN1C(=O)[C@H](CCCNC(=N)N)NC(=O)[C@H](CCCNC(=N)N)NC(=O)[C@H](Cc1ccc(O)cc1)NC(=O)[C@H](Cc1ccccc1)NC(=O)[C@@H]1CCCN1C(=O)[C@H](CCCNC(=N)N)NC(=O)[C@H](Cc1ccccc1)NC(=O)[C@H](CCCCN)NC(=O)[C@H](CCCCN)NC(=O)[C@H](Cc1ccccc1)NC(=O)[C@@H](NC(=O)[C@@H](N)CCC(N)=O)C(C)C)C(N)=O [Off2.1] (H-QVFKKFRPFYRRPWELFGKL-NH2) | > 200 µM | > 100 µM | 91 ± 2 µM | 173 ± 1 µM |
| CC(C)C[C@H](NC(=O)[C@H](CCCNC(=N)N)NC(=O)CNC(=O)[C@H](CC(C)C)NC(=O)[C@@H](NC(=O)[C@H](CCCCN)NC(=O)[C@H](Cc1c[nH]c2ccccc12)NC(=O)[C@H](Cc1ccc(O)cc1)NC(=O)[C@H](CCCNC(=N)N)NC(=O)[C@H](CCCCN)NC(=O)[C@H](Cc1ccc(O)cc1)NC(=O)[C@@H](NC(=O)[C@@H](NC(=O)[C@H](CCCCN)NC(=O)[C@H](Cc1ccccc1)NC(=O)[C@H](Cc1c[nH]cn1)NC(=O)[C@H](CCCCN)NC(=O)[C@H](CC(C)C)NC(=O)[C@H](Cc1ccccc1)NC(=O)[C@@H](N)CCCNC(=N)N)[C@@H](C)O)C(C)C)C(C)C)C(N)=O [Off8] (H-RFLKHFKTVYKRYWKVLGRL-NH2) | 144 ± 4 µM | 17 ± 4 µM | 11.9 ± 0.1 µM | 14.3 ± 0.2 µM |
| CC[C@H](C)[C@H](NC(=O)[C@H](CC(C)C)NC(=O)[C@@H](N)CCCCN)C(=O)N[C@@H](Cc1c[nH]cn1)C(=O)N[C@@H](CCCNC(=N)N)C(=O)N[C@@H](CC(C)C)C(=O)N[C@@H](CCCCN)C(=O)N[C@H](C(=O)N[C@H](C(=O)N[C@@H](Cc1ccccc1)C(=O)N[C@@H](CCCCN)C(=O)N[C@@H](CCCCN)C(=O)N[C@H](C(=O)N[C@@H](Cc1c[nH]c2ccccc12)C(=O)N[C@@H](Cc1c[nH]cn1)C(=O)N[C@@H](Cc1ccccc1)C(=O)N[C@@H](CC(C)C)C(=O)NCC(=O)N[C@@H](Cc1c[nH]cn1)C(=O)N[C@@H](CC(C)C)C(N)=O)C(C)C)C(C)C)[C@@H](C)O [Off9] (H-KLIHRLKTVFKKVWHFLGHL-NH2) | 41 ± 3 µM | 22 ± 4 µM | 18.9 ± 0.2 µM | 22 ± 3 µM |
| CC[C@H](C)[C@H](NC(=O)[C@H](CCCCN)NC(=O)CNC(=O)[C@@H](NC(=O)[C@H](CC(C)C)NC(=O)[C@H](Cc1c[nH]cn1)NC(=O)[C@H](Cc1c[nH]c2ccccc12)NC(=O)[C@H](C)NC(=O)[C@H](CCCCN)NC(=O)[C@H](CCCCN)NC(=O)[C@@H](NC(=O)[C@H](Cc1c[nH]c2ccccc12)NC(=O)[C@@H](NC(=O)[C@H](CCCNC(=N)N)NC(=O)[C@@H](NC(=O)[C@H](CCCCN)NC(=O)[C@H](CCCCN)NC(=O)[C@@H](NC(=O)[C@@H](NC(=O)[C@@H](N)CCC(N)=O)[C@@H](C)CC)[C@@H](C)CC)C(C)C)[C@@H](C)O)[C@@H](C)CC)[C@@H](C)CC)C(N)=O [Off2.2.7] (H-QIIKKVRTWIKKAWHLIGKI-NH2) | > 100 µM | 12 ± 2 µM | 8 ± 1 µM | 17 ± 1 µM |
| CC[C@H](C)[C@H](NC(=O)[C@H](CCCCN)NC(=O)[C@H](CCCCN)NC(=O)[C@H](CC(C)C)NC(=O)[C@H](CC(C)C)NC(=O)[C@@H](N)CCC(N)=O)C(=O)N[C@@H](CCCNC(=N)N)C(=O)N[C@H](C(=O)N[C@@H](Cc1c[nH]c2ccccc12)C(=O)N[C@@H](Cc1ccc(O)cc1)C(=O)N[C@@H](CCCNC(=N)N)C(=O)N[C@@H](CCCCN)C(=O)N[C@@H](C)C(=O)N[C@@H](Cc1c[nH]c2ccccc12)C(=O)N[C@@H](Cc1c[nH]cn1)C(=O)N[C@H](C(=O)N[C@@H](Cc1ccc(O)cc1)C(=O)NCC(=O)N[C@@H](CCCCN)C(=O)N[C@H](C(N)=O)C(C)C)C(C)C)[C@@H](C)O [Off2.2.9] (H-QLLKKIRTWYRKAWHVYGKV-NH2) | > 200 µM | 28 ± 3 µM | 13 ± 1 µM | 21 ± 2 µM |
| CC[C@H](C)[C@H](NC(=O)[C@H](CCC(N)=O)NC(=O)[C@H](Cc1ccccc1)NC(=O)[C@H](C)NC(=O)[C@H](CCCCN)NC(=O)[C@H](CCCCN)NC(=O)[C@H](Cc1ccc(O)cc1)NC(=O)[C@H](Cc1c[nH]c2ccccc12)NC(=O)[C@@H](NC(=O)[C@H](CCCCN)NC(=O)[C@@H](NC(=O)[C@H](CCCCN)NC(=O)[C@H](CCCCN)NC(=O)[C@H](Cc1ccccc1)NC(=O)[C@@H](NC(=O)[C@@H](N)CCC(N)=O)[C@@H](C)CC)C(C)C)[C@@H](C)O)C(=O)N[C@@H](CC(C)C)C(=O)NCC(=O)N[C@@H](CCCNC(=N)N)C(=O)N[C@@H](CC(C)C)C(N)=O [Off2.6] (H-QIFKKVKTWYKKAFQILGRL-NH2) | > 100 µM | 12.4 ± 0.1 µM | 9.3 ± 0.2 µM | 21 ± 2 µM |
